Laboratory results from ChEMBL document CHEMBL1201862, “PubChem BioAssay data set” (2004).
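Each compound was tested at five concentrations against cells in 96-well plates for 48 hours. The concentration for 50% growth inhibition is given as GI50.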 Activity calls are given as the source filed them. Cut-off read from the data, not from the text of the source: active = GI50 up to about 1.1 µM and inactive = higher.

How the values were obtained:
Assay in all cases: DTP human tumour cell line panel, 48 h
M14 = tested on: M14
SNB-75 = tested on: SNB-75
ACHN = tested on: ACHN
SF-295 = tested on: SF-295
SK-MEL-5 = tested on: SK-MEL-5
A498 = tested on: A498
OVCAR-5 = tested on: OVCAR-5
OVCAR-8 = tested on: OVCAR-8
HOP-62 = tested on: HOP-62
MDA-MB-435 = tested on: MDA-MB-435
NCI-H226 = tested on: NCI-H226
SN12C = tested on: SN12C
HL-60 = tested on: HL-60
MDA-MB-231 = tested on: MDA-MB-231
HCT-15 = tested on: HCT-15
Malme-3M = tested on: Malme-3M
SNB-19 = tested on: SNB-19
OVCAR-3 = tested on: OVCAR-3
HCC 2998 = tested on: HCC 2998
MCF7 = tested on: MCF7

Structure (SMILES) | GI50 (M14) | GI50 (SNB-75) | GI50 (ACHN) | GI50 (SF-295) | GI50 (SK-MEL-5) | GI50 (A498) | GI50 (OVCAR-5) | GI50 (OVCAR-8) | GI50 (HOP-62) | GI50 (MDA-MB-435) | GI50 (NCI-H226) | GI50 (SN12C) | GI50 (HL-60) | GI50 (MDA-MB-231) | GI50 (HCT-15) [µM] | GI50 (Malme-3M) | GI50 (SNB-19) | GI50 (OVCAR-3) | GI50 (HCC 2998) | GI50 (MCF7)
CC(=O)N1c2ccccc2[C@H]2CCc3c([nH]c4ccccc34)[C@H]21 | 14.3 µM (inactive) | 18.4 µM (inactive) | 16 µM (inactive) | 13.9 µM (inactive) | 12.9 µM (inactive) | 17.5 µM (inactive) | 26.9 µM (inactive) | 25.3 µM (inactive) | 12.6 µM (inactive) | 16.7 µM (inactive) | 13.9 µM (inactive) | 13.7 µM (inactive) | 12.4 µM (inactive) | 11.4 µM (inactive) | 11.3 | 14.1 µM (inactive) | 24.3 µM (inactive) | 15.4 µM (inactive) | – | –
CC(=O)N[C@@H](Cc1ccc(O)cn1)C(=O)NCc1cccc(F)c1 | > 100 µM (inactive) | – | > 100 µM (inactive) | > 100 µM (inactive) | > 100 µM (inactive) | > 100 µM (inactive) | > 100 µM (inactive) | – | > 100 µM (inactive) | > 100 µM (inactive) | > 100 µM (inactive) | > 100 µM (inactive) | > 100 µM (inactive) | – | > 100 | > 100 µM (inactive) | > 100 µM (inactive) | > 100 µM (inactive) | > 100 µM (inactive) | > 100 µM (inactive)
CC1=C2C(=CC(C)(C)[C@@H]2O)C(=O)[C@](C)(O)C12CC2 [ILLUDIN M] | 0.0156 µM (active) | 0.0165 µM (active) | < 0.011 µM (active) | < 0.018 µM (active) | 0.0126 µM (active) | 0.0206 µM (active) | 0.0183 µM (active) | < 0.018 µM (active) | 0.0185 µM (active) | – | 0.0619 µM (active) | 0.0236 µM (active) | 0.0156 µM (active) | – | 0.0129 | 0.022 µM (active) | 0.027 µM (active) | < 0.0143 µM (active) | < 0.0117 µM (active) | –
COc1cccc(NC(=O)/C(Cc2nc3ccccc3nc2C)=N/NC(=O)C[n+]2ccccc2)c1 | > 100 µM (inactive) | > 100 µM (inactive) | > 100 µM (inactive) | > 100 µM (inactive) | > 100 µM (inactive) | > 100 µM (inactive) | > 100 µM (inactive) | > 100 µM (inactive) | > 100 µM (inactive) | – | > 100 µM (inactive) | > 100 µM (inactive) | > 100 µM (inactive) | – | > 100 | > 100 µM (inactive) | > 100 µM (inactive) | > 100 µM (inactive) | > 100 µM (inactive) | –
CC(C)=CC(=O)N(C)C1C2CN3CCC(O2)C13 (configuration not stated) | > 100 µM (inactive) | > 100 µM (inactive) | > 100 µM (inactive) | > 100 µM (inactive) | > 100 µM (inactive) | > 100 µM (inactive) | > 100 µM (inactive) | > 100 µM (inactive) | > 100 µM (inactive) | – | > 100 µM (inactive) | > 100 µM (inactive) | > 100 µM (inactive) | – | > 100 | > 100 µM (inactive) | > 100 µM (inactive) | > 100 µM (inactive) | > 100 µM (inactive) | –
CC12CC(c3ccccc3O1)C(C(=O)Nc1ccc(Cl)cc1Cl)C(=O)N2 (configuration not stated) | 18 µM (inactive) | – | 25 µM (inactive) | 48.2 µM (inactive) | > 100 µM (inactive) | – | 29.6 µM (inactive) | 14.9 µM (inactive) | 20.1 µM (inactive) | 67.1 µM (inactive) | – | – | 3.34 µM (inactive) | – | 54.2 | 39 µM (inactive) | 36.7 µM (inactive) | 38 µM (inactive) | 49.1 µM (inactive) | > 100 µM (inactive)
Cn1c(=O)nc2n(-c3ccc(Cl)cc3)c(-c3ccccc3)c(-c3ccccc3)nc-2c1=O | 20 µM (inactive) | 23.2 µM (inactive) | 19.9 µM (inactive) | 30.1 µM (inactive) | 20.1 µM (inactive) | 49.3 µM (inactive) | 66.8 µM (inactive) | 37.5 µM (inactive) | 25.3 µM (inactive) | – | 19.2 µM (inactive) | 33.6 µM (inactive) | 18.3 µM (inactive) | – | 22.5 | 28.4 µM (inactive) | 32.1 µM (inactive) | 21.7 µM (inactive) | 47.2 µM (inactive) | –
Cc1ccc(S(=O)(=O)OCC23CCC(CC2)C2CC23)cc1 (configuration not stated) | 92 µM (inactive) | 3.62 µM (inactive) | 61.7 µM (inactive) | 35.1 µM (inactive) | 24 µM (inactive) | 43.3 µM (inactive) | > 100 µM (inactive) | 59.3 µM (inactive) | 48.3 µM (inactive) | – | 61.2 µM (inactive) | 45.4 µM (inactive) | 17.4 µM (inactive) | – | 47.6 | 48.8 µM (inactive) | 96.6 µM (inactive) | 31.9 µM (inactive) | > 100 µM (inactive) | –
COc1cc2c(cc1O)CN1CCC23C=C[C@@H](O)CC13 (some centres not stated) | 41 µM (inactive) | 59.4 µM (inactive) | 57.5 µM (inactive) | 96.2 µM (inactive) | 39.6 µM (inactive) | > 100 µM (inactive) | > 100 µM (inactive) | 38.1 µM (inactive) | > 100 µM (inactive) | – | 76.4 µM (inactive) | 46.2 µM (inactive) | 15.2 µM (inactive) | – | 68.4 | > 100 µM (inactive) | 55.6 µM (inactive) | > 100 µM (inactive) | 56.9 µM (inactive) | –
O=S1(=O)OCCCOS(=O)(=O)C1(Br)Br | > 100 µM (inactive) | > 100 µM (inactive) | > 100 µM (inactive) | > 100 µM (inactive) | > 100 µM (inactive) | – | > 100 µM (inactive) | > 100 µM (inactive) | 0.743 µM (active) | > 100 µM (inactive) | > 100 µM (inactive) | > 100 µM (inactive) | > 100 µM (inactive) | – | > 100 | > 100 µM (inactive) | > 100 µM (inactive) | > 100 µM (inactive) | – | > 100 µM (inactive)
COc1cc(/C=C2\N=C(c3ccccc3)N(c3cc4cc(Sc5ccccc5)ccc4[nH]3)C2=O)cc(OC)c1OC | 11.4 µM (inactive) | 12.7 µM (inactive) | 18.4 µM (inactive) | 20.7 µM (inactive) | 10.6 µM (inactive) | 13.8 µM (inactive) | 25.9 µM (inactive) | 12.6 µM (inactive) | 15 µM (inactive) | 3.84 µM (inactive) | 12.2 µM (inactive) | 15.2 µM (inactive) | 14.6 µM (inactive) | – | 14.4 | 2.96 µM (inactive) | 23.2 µM (inactive) | 17.8 µM (inactive) | 12.7 µM (inactive) | 11.5 µM (inactive)
CN1CCCCC(C#N)(c2ccccc2)CC1 (configuration not stated) | > 100 µM (inactive) | > 100 µM (inactive) | > 100 µM (inactive) | > 100 µM (inactive) | > 100 µM (inactive) | > 100 µM (inactive) | > 100 µM (inactive) | > 100 µM (inactive) | > 100 µM (inactive) | – | – | – | > 100 µM (inactive) | – | > 100 | > 100 µM (inactive) | > 100 µM (inactive) | – | > 100 µM (inactive) | > 100 µM (inactive)
CCOC(OC1=C(C#N)CCCC1)C(C)[Se]c1ccccc1 (configuration not stated) | 28.9 µM (inactive) | 36.9 µM (inactive) | 44.5 µM (inactive) | 33.3 µM (inactive) | 20.6 µM (inactive) | > 100 µM (inactive) | > 100 µM (inactive) | 24.3 µM (inactive) | 78.3 µM (inactive) | – | 30.7 µM (inactive) | 25.2 µM (inactive) | 17.3 µM (inactive) | – | 36.8 | 55.3 µM (inactive) | 54.5 µM (inactive) | 31.6 µM (inactive) | > 100 µM (inactive) | –
COc1ccc(-c2cc(=O)c3c(O)c(O)c(OC)cc3o2)cc1O | > 100 µM (inactive) | 31.5 µM (inactive) | > 100 µM (inactive) | > 100 µM (inactive) | > 100 µM (inactive) | > 100 µM (inactive) | > 100 µM (inactive) | > 100 µM (inactive) | > 100 µM (inactive) | – | > 100 µM (inactive) | > 100 µM (inactive) | > 100 µM (inactive) | – | > 100 | > 100 µM (inactive) | > 100 µM (inactive) | > 100 µM (inactive) | > 100 µM (inactive) | –
COc1cc2c(c(OC)c1OC)C(=O)NCCC2 | > 100 µM (inactive) | 69.7 µM (inactive) | > 100 µM (inactive) | > 100 µM (inactive) | > 100 µM (inactive) | > 100 µM (inactive) | > 100 µM (inactive) | > 100 µM (inactive) | > 100 µM (inactive) | – | > 100 µM (inactive) | > 100 µM (inactive) | > 63.1 µM (inactive) | – | > 100 | > 100 µM (inactive) | > 100 µM (inactive) | > 100 µM (inactive) | > 92.9 µM (inactive) | > 100 µM (inactive)
COC(=O)C(CCCN1C(=O)c2ccccc2C1=O)C(=O)OC | > 100 µM (inactive) | > 100 µM (inactive) | > 100 µM (inactive) | > 100 µM (inactive) | > 100 µM (inactive) | > 100 µM (inactive) | > 100 µM (inactive) | > 100 µM (inactive) | > 100 µM (inactive) | – | > 100 µM (inactive) | > 100 µM (inactive) | > 100 µM (inactive) | – | > 100 | > 100 µM (inactive) | > 100 µM (inactive) | > 100 µM (inactive) | > 100 µM (inactive) | –
